Assay results taken from patent publication US20240327393A1 (SIRONAX LTD., priority 2021, published 2024).
Where two headings read alike, the source gives them in different places.

System: HT-1080 (ATCC, CCL-121) cells
Test: HT-1080 cell viability assay with ferroptosis inducer RSL3 (Cell Titer-Glo)
Assay type: cell-based
Conditions: HT-1080 cells treated with RSL3, 3-fold, 10-point dilution, 1.1 μM highest concentration, read-out: EC50 (nM), ferroptosis inhibitory activity
Method in brief: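 HT-1080 cells (6000 per well) were cultured overnight at 37 °C, then co-treated with RSL3 and compound in a 3-fold, 10-point series topping at 1.1 μM. Viability was read by CellTiter-Glo luminescence and normalized to untreated controls. EC50 came from a sigmoidal non-linear regression fit.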

| EC50 (Homo sapiens, Table 2) [nM] | EC50 (Homo sapiens, Table 3) [nM] | SMILES | also measured |
| --- | --- | --- | --- |
| 0.1 to 100 |  | CC1CN(c2ccc(Nc3ccc4c(c3)CN(C)C4)cc2)CC(C)O1 (stereo not drawn) [Compound 430, N-(4-(2,6-dimethylmorpholino)phenyl)-2-methylisoindolin-5-amine] |  |
| 0.1 to 100 |  | CC1CN(c2ccc(Nc3ccc4c(c3)ncn4C)cc2)CC(C)O1 (stereo not drawn) [Compound 434, N-(4-(2,6-dimethylmorpholino)phenyl)-1-methyl-1H-benzo[d]imidazol-5-amine] |  |
| 0.1 to 100 |  | CNCCn1c(=O)n(C)c2cc(Nc3ccc(N4CC(C)OC(C)C4)cc3)ccc21 (stereo not drawn) [Compound 436, 5-((4-(2,6-dimethylmorpholino)phenyl)amino)-3-methyl-1-(2-(methylamino)ethyl)-1H-benzo[d]imidazol-2(3H)-one] |  |
| 0.1 to 100 |  | Cc1cc(N2CC(C)OC(C)C2)ccc1Nc1ccc2c(c1)C(C)(C)C(=O)N2C (stereo not drawn) [Compound 438, 5-((4-(2,6-dimethylmorpholino)-2-methylphenyl)amino)-1,3,3-trimethylindolin-2-one] |  |
| 0.1 to 100 |  | Cc1cc(N2CC(C)OC(C)C2)ccc1Nc1ccc2c(c1)CN(C)C2 (stereo not drawn) [Compound 439, N-(4-(2,6-dimethylmorpholino)-2-methylphenyl)-2-methylisoindolin-5-amine] |  |
| 0.1 to 100 |  | CC1CN(c2ccc(Nc3ccc4c(C(N)=O)cn(C)c4c3)cc2)CC(C)O1 (stereo not drawn) [Compound 442, 6-((4-(2,6-dimethylmorpholino)phenyl)amino)-1-methyl-1H-indole-3-carboxamide] |  |
| 0.1 to 100 |  | Cc1cc(N2CC(C)OC(C)C2)ccc1Nc1ccc2c(c1)c(C(N)=O)cn2C (stereo not drawn) [Compound 444, 5-((4-(2,6-dimethylmorpholino)-2-methylphenyl)amino)-1-methyl-1H-indole-3-carboxamide] |  |
| 0.1 to 100 |  | Cc1cc(N2CC(C)OC(C)C2)ccc1Nc1ccc2oc(=O)n(C)c2c1 (stereo not drawn) [Compound 446, 5-((4-(2,6-dimethylmorpholino)-2-methylphenyl)amino)-3-methylbenzo[d]oxazol-2(3H)-one] |  |
| 0.1 to 100 |  | Cc1cc(N2CC(C)OC(C)C2)ccc1Nc1ccc2c(c1)ncn2C (stereo not drawn) [Compound 447, N-(4-(2,6-dimethylmorpholino)-2-methylphenyl)-1-methyl-1H-benzo[d]imidazol-5-amine] |  |
|  | 0.1 to 100 | O=C1COc2cc(Nc3ccc(N4CCC(C(F)(F)F)CC4)cc3)cnc2N1 [Compound 450, 7-((4-(4-(trifluoromethyl)piperidin-1-yl)phenyl)amino)-2H-pyrido[3,2-b][1,4]oxazin-3(4H)-one] |  |
|  | 0.1 to 100 | Cc1c(Nc2ccc3c(c2)OCC(=O)N3)ccc(N2CCC(C(F)(F)F)CC2)c1F [Compound 454, 7-((3-fluoro-2-methyl-4-(4-(trifluoromethyl)piperidin-1-yl)phenyl)amino)-2H-benzo[b][1,4]oxazin-3(4H)-one] |  |
|  | 0.1 to 100 | Cc1cc(N2CC(C)OC(C)C2)ccc1Nc1ccc2c(c1)OCC(=O)N2CCO (stereo not drawn) [Compound 456, 7-((4-(2,6-dimethylmorpholino)-2-methylphenyl)amino)-4-(2-hydroxyethyl)-2H-benzo[b][1,4]oxazin-3(4H)-one] |  |
|  | 0.1 to 100 | O=C1COc2cc(Nc3cnc(N4CCC(C(F)(F)F)CC4)c(F)c3)ccc2N1 [Compound 459, 7-((5-fluoro-6-(4-(trifluoromethyl)piperidin-1-yl)pyridin-3-yl)amino)-2H-benzo[b][1,4]oxazin-3(4H)-one] |  |
|  | 0.1 to 100 | Cc1cc(N2CCC(C(F)(F)F)CC2)ccc1Nc1cnc2c(c1)OCC(=O)N2 [Compound 460, 7-((2-methyl-4-(4-(trifluoromethyl)piperidin-1-yl)phenyl)amino)-2H-pyrido[3,2-b][1,4]oxazin-3(4H)-one] |  |
|  | 0.1 to 100 | COc1cc(Nc2cnc3c(c2)OCC(=O)N3C)ccc1N1CCC(C(F)(F)F)CC1 [Compound 464, 7-({3-methoxy-4-[4-(trifluoromethyl)piperidin-1-yl]phenyl}amino)-4-methyl-2H-pyrido[3,2-b][1,4]oxazin-3-one] |  |
|  | 0.1 to 100 | COc1cc(Nc2cnc3c(c2)OCC(=O)N3)ccc1N1CCC(C(F)(F)F)CC1 [Compound 465, 7-((3-methoxy-4-(4-(trifluoromethyl)piperidin-1-yl)phenyl)amino)-2H-pyrido[3,2-b][1,4]oxazin-3(4H)-one] |  |

The remaining lines, values behind:

| SMILES | EC50 (Homo sapiens, Table 2) [nM] | EC50 (Homo sapiens, Table 3) [nM] | also measured |
| --- | --- | --- | --- |
| CN(C)CCn1c(=O)oc2ccc(Nc3ccc(N4CCC(C(F)(F)F)CC4)cc3)cc21 [Compound 429, 3-(2-(dimethylamino)ethyl)-5-((4-(4-(trifluoromethyl)piperidin-1-yl)phenyl)amino)benzo[d]oxazol-2(3H)-one] | 0.1 to 100 |  |  |
| CC1CN(c2ccc(Nc3ccc4c(c3)CNC4)cc2)CC(C)O1 (stereo not drawn) [Compound 431, N-(4-(2,6-dimethylmorpholino)phenyl)isoindolin-5-amine] | 0.1 to 100 |  |  |
| CC1CN(c2ccc(Nc3ccc4c(=O)n(C)[nH]c4c3)cc2)CC(C)O1 (stereo not drawn) [Compound 432, 6-((4-(2,6-dimethylmorpholino)phenyl)amino)-2-methyl-1H-indazol-3(2H)-one] | 0.1 to 100 |  |  |
| O=c1[nH]c2cc(Nc3ccc(N4CCC(C(F)(F)F)CC4)cc3)ccc2o1 [Compound 433, 5-((4-(4-(trifluoromethyl)piperidin-1-yl)phenyl)amino) benzo[d]oxazol-2(3H)-one] | 0.1 to 100 |  |  |
| CC1CN(c2ccc(Nc3ccc4c(c3)nc(N)n4C)cc2)CC(C)O1 (stereo not drawn) [Compound 435] | 0.1 to 100 |  |  |
| Cc1cc(N2CC(C)OC(C)C2)ccc1Nc1ccc2c(cnn2C)c1 (stereo not drawn) [Compound 437, N-(4-(2,6-dimethylmorpholino)-2-methylphenyl)-1-methyl-1H-indazol-5-amine] | 0.1 to 100 |  |  |
| Cc1cc(N2CC(C)OC(C)C2)ccc1Nc1ccc2c(c1)CNC2 (stereo not drawn) [Compound 440, N-(4-(2,6-dimethylmorpholino)-2-methylphenyl)isoindolin-5-amine] | 0.1 to 100 |  |  |
| CC1CN(c2ccc(Nc3ccc4oc(=O)[nH]c4c3)cc2)CC(C)O1 (stereo not drawn) [Compound 441, 5-((4-(2,6-dimethylmorpholino)phenyl)amino)benzo[d]oxazol-2(3H)-one] | 0.1 to 100 |  |  |
| Cc1cc(N2CC(C)OC(C)C2)ccc1Nc1ccc2[nH]ncc2c1 (stereo not drawn) [Compound 443, N-(4-(2,6-dimethylmorpholino)-2-methylphenyl)-1H-indazol-5-amine] | 0.1 to 100 |  |  |
| Cc1cc(N2CC(C)OC(C)C2)ccc1Nc1ccc2nn(C)cc2c1 (stereo not drawn) [Compound 445, N-(4-(2,6-dimethylmorpholino)-2-methylphenyl)-2-methyl-2H-indazol-5-amine] | 0.1 to 100 |  |  |
| O=C1COc2cc(Nc3ccc(N4CCC(C(F)(F)F)CC4)cc3Cl)ccc2N1 [Compound 448, 7-({2-chloro-4-[4-(trifluoromethyl)piperidin-1-yl]phenyl}amino)-2,4-dihydro-1,4-benzoxazin-3-one] |  | 0.1 to 100 |  |
| CC1CN(c2ccc(Nc3ccc4c(c3)N(C)C(=O)C4(C)C)cc2)CC(C)O1 (stereo not drawn) [Compound 449, 6-((4-(2,6-dimethylmorpholino)phenyl)amino)-1,3,3-trimethylindolin-2-one] |  | 0.1 to 100 |  |
| CN1C(=O)COc2cc(Nc3ccc(N4CCC(C(F)(F)F)CC4)cc3Cl)ccc21 [Compound 451, 7-((2-chloro-4-(4-(trifluoromethyl)piperidin-1-yl)phenyl)amino)-4-methyl-2H-benzo[b][1,4]oxazin-3(4H)-one] |  | 0.1 to 100 |  |
| Cc1cc(N2CCC(C(F)(F)F)CC2)ncc1Nc1ccc2c(c1)OCC(=O)N2C [Compound 452, 4-methyl-7-((4-methyl-6-(4-(trifluoromethyl)piperidin-1-yl)pyridin-3-yl)amino)-2H-benzo[b][1,4]oxazin-3(4H)-one] |  | 0.1 to 100 |  |
| Cc1cc(N2CCC(C(F)(F)F)CC2)ncc1Nc1ccc2c(c1)OCC(=O)N2 [Compound 453, 7-((4-methyl-6-(4-(trifluoromethyl)piperidin-1-yl)pyridin-3-yl)amino)-2H-benzo[b][1,4]oxazin-3(4H)-one] |  | 0.1 to 100 |  |
| Cc1cc(Nc2ccc3c(c2)OCC(=O)N3CCO)ccc1N1CC(C)OC(C)C1 (stereo not drawn) [Compound 455, 7-((4-(2,6-dimethylmorpholino)-3-methylphenyl)amino)-4-(2-hydroxyethyl)-2H-benzo[b][1,4]oxazin-3(4H)-one] |  | 0.1 to 100 |  |
| Cc1cc(N2CC(C)OC(C)C2)ccc1Nc1cnc2c(c1)OCC(=O)N2C (stereo not drawn) [Compound 457, 7-((4-(2,6-dimethylmorpholino)-2-methylphenyl)amino)-4-methyl-2H-pyrido[3,2-b][1,4]oxazin-3(4H)-one] |  | 0.1 to 100 |  |
| CC1CN(c2ccc(Nc3ccc4c(c3)nnn4C)cc2)CC(C)O1 (stereo not drawn) [Compound 458, N-(4-(2,6-dimethylmorpholino)phenyl)-1-methyl-1H-benzo[d][1,2,3]triazol-5-amine] |  |  | EC50 (Table 3): 0.1 to 100 nM |
| Cc1cc(Nc2ccc3c(c2)OCC(=O)N3CCO)ccc1N1CC(C)OC(C)C1 (stereo not drawn) [Compound 461, 7-((4-(2,6-dimethylmorpholino)-3-methylphenyl)amino)-4-(2-hydroxyethyl)-2H-benzo[b][1,4]oxazin-3(4H)-one] |  |  | EC50 (Table 3): 0.1 to 100 nM |
| Cc1cc(N2CC(C)OC(C)C2)ccc1Nc1cnc2c(c1)OCC(=O)N2 (stereo not drawn) [Compound 462, 7-((4-(2,6-dimethylmorpholino)-2-methylphenyl)amino)-2H-pyrido[3,2-b][1,4]oxazin-3(4H)-one] |  | 0.1 to 100 |  |
| Cc1cc(Nc2ccc(N3CC(C)OC(C)C3)cc2)cc2c1N(C)C(=O)CO2 (stereo not drawn) [Compound 463, 7-{[4-(2,6-dimethylmorpholin-4-yl)phenyl]amino}-4,5-dimethyl-2H-1,4-benzoxazin-3-one] |  | 0.1 to 100 |  |
| O=C1COc2cc(Nc3ccc(N4CCC(C(F)(F)F)CC4)cc3F)ccc2N1 [Compound 466, 7-((2-fluoro-4-(4-(trifluoromethyl)piperidin-1-yl)phenyl)amino)-2H-benzo[b][1,4]oxazin-3(4H)-one] |  | 0.1 to 100 |  |
| Cc1cc(N2CCC(C(F)(F)F)CC2)ccc1Nc1ccc2oc(=O)[nH]c2c1 [Compound 467, 5-((2-methyl-4-(4-(trifluoromethyl)piperidin-1-yl)phenyl)amino) benzo[d]oxazol-2(3H)-one] |  | 0.1 to 100 |  |
